Consider 14 molecules from patent publication US8492371B2, “Compounds as cannabinoid receptor ligands” (priority 2009, dated 2013).

Where two headings read alike, the source gives them in different places.

In assay [1] the test system is microglial. The note with it: in vitro; blocked by SR144528; cited from earlier work.
For assay [2] the following is noted: rat formalin model of persistent pain; cited from earlier work.
The conditions of assay [3]: neuropathic, incisional, chronic and acute inflammatory pain; cited from earlier work.
The conditions of assay [4]: acute thermal, persistent, inflammatory and neuropathic pain models; cited from earlier work.
The conditions of assay [5]: cited from earlier work.
The conditions of assay [6]: low doses, apolipoprotein E knockout mice; inhibited by SR144528; cited from earlier work.
Assay [7] concerns the target T1, human CB2 receptors (Homo sapiens, UniProt P34972).
T1 construct: expressed in transfected cells; host or cells: HEK293
Nature of the assay: Human CB2 radioligand binding assay ([3H]CP-55,940 competition). An outline of the steps: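 Membranes from HEK293 cells stably expressing human CB2 (5 μg/well) incubated 90 min at 30 °C with 0.5 nM [3H]CP-55,940 and five concentrations of displacer (0.01 nM–10 μM) in pH 7.4 Tris/EDTA/MgCl2 buffer with fatty acid free BSA. Bound radioactivity counted after filtration; nonspecific binding defined with 10 μM unlabeled CP-55,940.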

Assay [8] addresses T2, rat CB2 receptors (Rattus norvegicus, UniProt Q9QZN9).
T2 construct: expressed in transfected cells; host or cells: HEK293
T2 sequence (Q9QZN9 1-360): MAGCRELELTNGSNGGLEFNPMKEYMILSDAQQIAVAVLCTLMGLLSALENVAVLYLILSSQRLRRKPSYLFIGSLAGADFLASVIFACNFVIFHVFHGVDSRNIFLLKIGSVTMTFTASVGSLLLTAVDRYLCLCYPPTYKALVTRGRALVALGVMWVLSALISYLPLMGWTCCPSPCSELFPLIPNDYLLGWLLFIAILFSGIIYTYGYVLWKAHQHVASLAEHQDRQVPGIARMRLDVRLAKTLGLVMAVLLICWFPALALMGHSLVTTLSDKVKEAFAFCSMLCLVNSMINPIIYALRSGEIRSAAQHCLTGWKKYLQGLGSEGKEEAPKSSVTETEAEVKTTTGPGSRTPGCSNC
Nature of the assay: Rat CB2 radioligand binding assay ([3H]CP-55,940 competition). An outline of the steps: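 Membranes from HEK293 cells stably expressing rat CB2 (20 μg/well) incubated 45 min at 30 °C with 0.5 nM [3H]CP-55,940 and five competitor concentrations in Tris/EDTA/MgCl2 buffer with 0.5 mg/mL BSA, pH 7.4. Filtration and scintillation counting; nonspecific binding with 10 μM unlabeled CP-55,940.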

T1 sequence (P34972 whole entry): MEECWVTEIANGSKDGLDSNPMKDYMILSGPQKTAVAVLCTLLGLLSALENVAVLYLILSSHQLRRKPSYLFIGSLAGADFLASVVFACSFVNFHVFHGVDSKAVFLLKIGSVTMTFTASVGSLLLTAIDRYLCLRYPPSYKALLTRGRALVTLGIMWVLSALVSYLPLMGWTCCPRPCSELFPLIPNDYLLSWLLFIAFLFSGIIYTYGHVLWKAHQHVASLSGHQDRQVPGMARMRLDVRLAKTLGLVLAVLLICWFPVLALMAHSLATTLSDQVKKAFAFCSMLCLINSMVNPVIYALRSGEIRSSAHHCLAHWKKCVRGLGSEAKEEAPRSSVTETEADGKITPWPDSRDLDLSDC

In the case of `CCCC(C)(C)c1ccc2c(c1)OC(C)(C)[C@@H]1CC=C(C)C[C@@H]21` [JWH-133], the “effect on β-amyloid-induced microglial activation and neurotoxicity” value in assay [1] is “abrogated β-amyloid-induced microglial activation and neurotoxicity”.

As for `CCCCCCC(C)(C)c1cc(OC)c([C@@H]2C=C(CO)[C@@H]3C[C@H]2C3(C)C)c(OC)c1` [HU-308], in assay [2], the antinociceptive response result was “elicits an antinociceptive response”.

As for `COc1ccc2c(c1)c(CCN1CCOCC1)c(C)n2C(=O)c1cccc(Cl)c1Cl` [GW405833], in assay [3], the “efficacy in pain models” value is on record as “is efficacious”.

With `CN1CCCCC1Cn1cc(C(=O)c2cc([N+](=O)[O-])ccc2I)c2ccccc21` (centres unmarked) [AM-1241], the analgesic efficacy result in assay [4] was “exhibits robust analgesic efficacy”.

SR144528: in assay [5] (mice, model for post-menopausal osteoporosis), the ovariectomy-induced bone loss entry is “reverse ovariectomy-induced bone loss”. Also, in assay [5] (mouse, in vivo), the osteoclast activity result is “inhibit osteoclast activity”.

For (−)-Δ^9-Tetrahydrocannabinol [THC], the “progression of atherosclerotic lesions” value in assay [6] is listed as “slowed the progression of atherosclerotic lesions”.

`COc1ccc(Cl)cc1C(=O)/N=c1\cc(C(C)(C)C)ccn1C[C@H]1CCCO1` [Example 61, N-[(2E)-4-tert-butyl-1-[(2R)-tetrahydrofuran-2-ylmethyl]pyridin-2(1H)-ylidene]-5-chloro-2-methoxybenzamide]: the Ki came out at 103 nM in assay [7] (HEK293 membranes, 0.5 nM [3H]CP-55,940, read-out: human CB2 Ki) and 13 nM in assay [8].

For `Cn1c(C(C)(C)C)c/c(=N\C(=O)c2cc(C(F)(F)F)ccc2OCC2CC(F)(F)C2)n1C[C@H]1CCCO1` [Example 19, N-{(3E)-5-tert-butyl-1-methyl-2-[(2R)-tetrahydrofuran-2-ylmethyl]-1,2-dihydro-3H-pyrazol-3-ylidene}-2-[(3,3-difluorocyclobutyl)methoxy]-5-(trifluoromethyl)benzamide], the Ki in assay [7] stood at 22 nM; in assay [8], 11 nM.

Consider `COc1ccc(C(F)(F)F)cc1C(=O)/N=c1\cc(C(C)(C)C)n(C)n1CC1CC[C@H](C)O1` (some centres unmarked) [Example 65, N-((3E)-5-tert-butyl-1-methyl-2-{[(55)-5-methyltetrahydrofuran-2-yl]methyl}-1,2-dihydro-3H-pyrazol-3-ylidene)-2-methoxy-5-(trifluoromethyl)benzamide], for which the values for the Ki in assay [7] and in assay [8] were 65 nM and 5.7 nM, respectively.

Regarding `CC(CF)Oc1ccc(C(F)(F)F)cc1C(=O)/N=c1\cc(C(C)(C)C)n(C)n1C[C@H]1CCCO1` (stereo partly drawn) [Example 42, N-{(3E)-5-tert-butyl-1-methyl-2-[(2R)-tetrahydrofuran-2-ylmethyl]-1,2-dihydro-3H-pyrazol-3-ylidene}-2-(2-fluoro-1-methylethoxy)-5-(trifluoromethyl)benzamide], the Ki turned out to be 139 nM in assay [7] and 30 nM in assay [8].

Regarding `C#CC(C)(C)c1nn(C[C@H]2CCCO2)/c(=N/C(=O)c2cc(Cl)ccc2OC)s1` [Example 6, 5-chloro-N-[(2Z)-5-(1,1-dimethylprop-2-ynyl)-3-[(2R)-tetrahydrofuran-2-ylmethyl]-1,3,4-thiadiazol-2(3H)-ylidene]-2-methoxybenzamide], the Ki in assay [7] is 20 nM; in assay [8] it was 3.3 nM.

As for `COCCOc1ccc(Br)cc1C(=O)/N=c1\cc(C(C)(C)C)n(C)n1C[C@H]1CCCO1` [Example 58, 5-bromo-N-{(3E)-5-tert-butyl-1-methyl-2-[(2R)-tetrahydrofuran-2-ylmethyl]-1,2-dihydro-3H-pyrazol-3-ylidene}-2-(2-methoxyethoxy)benzamide], the Ki in assay [7] amounted to 31 nM; in assay [8], 69 nM.

For the molecule `Cn1c(C(C)(C)C)c/c(=N\C(=O)c2cc(C(F)(F)F)ccc2OCC(F)F)n1C[C@H]1CCCO1` [Example 35, N-{(3E)-5-tert-butyl-1-methyl-2-[(2R)-tetrahydrofuran-2-ylmethyl]-1,2-dihydro-3H-pyrazol-3-ylidene}-2-(2,2-difluoroethoxy)-5-(trifluoromethyl)benzamide], the Ki in assay [7] was 17 nM; in assay [8], 5.5 nM.

For the molecule `COCCOc1ccc(C(F)(F)F)cc1C(=O)/N=c1\cc(C(C)(C)C)n(C)n1C[C@H]1CCCO1` [Example 23, N-{(3E)-5-tert-butyl-1-methyl-2-[(2R)-tetrahydrofuran-2-ylmethyl]-1,2-dihydro-3H-pyrazol-3-ylidene}-2-(2-methoxyethoxy)-5-(trifluoromethyl)benzamide], the figures for the Ki in assay [7] and in assay [8] were 30 nM and 19 nM, respectively.
